Measured values published in the supplement of paper PMC11061612.

Tests used:
Assay in all cases: Bliss excess, mean over the matrix (fraction); higher = more synergy
[1] = tested on: 786-0 (Kidney Carcinoma)
Summary of the method: (§1)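 Bliss excess equals the observed combination effect minus the expected value EA + EB − EA·EB, where EA and EB are the effects of each agent alone. Combination Emax is the second-highest inhibition within the matrix. Inhibition was scaled from CellTiter-Glo 2.0 luminescence, with 0 set by vehicle wells and 1 by blank wells, after 72 hours of two-drug dosing of cells plated in 1536-well plates.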

[2] = tested on: AsPC-1 (Pancreatic Carcinoma)
Summary of the method: as §1

[3] = tested on: CML-T1 (Chronic Myelogenous Leukemia)
Summary of the method: as §1

[4] = tested on: Calu-6 (Non-Small Cell Lung Carcinoma)
Summary of the method: as §1

[5] = tested on: EB-3 (Burkitt's Lymphoma)
Summary of the method: as §1

[6] = tested on: ES-2 (Ovarian Carcinoma)
Summary of the method: as §1

[7] = tested on: FLO-1 (Esophageal Adenocarcinoma)
Summary of the method: as §1

[8] = tested on: HSC-3 (Oral Cavity Carcinoma)
Summary of the method: as §1

[9] = tested on: HuO-3N1 (Osteosarcoma)
Summary of the method: as §1

[10] = tested on: JHH-1 (Hepatocellular Carcinoma)
Summary of the method: as §1

[11] = tested on: LAMA-84 (Chronic Myelogenous Leukemia)
Summary of the method: as §1

[12] = tested on: NCI-H1155 (Non-Small Cell Lung Carcinoma)
Summary of the method: as §1

[13] = tested on: NCI-H1623 (Lung Adenocarcinoma)
Summary of the method: as §1

[14] = tested on: NKM-1 (Acute Myeloid Leukemia)
Summary of the method: as §1

[15] = tested on: OCI-AML5 (Acute Myeloid Leukemia)
Summary of the method: as §1

[16] = tested on: OV-90 (Ovarian Carcinoma)
Summary of the method: as §1

[17] = tested on: PANC-02-03 (Pancreatic Carcinoma)
Summary of the method: as §1

[18] = tested on: RPMI-8866 (Chronic Myelogenous Leukemia)
Summary of the method: as §1

[19] = tested on: SNU-175 (Colorectal Carcinoma)
Summary of the method: as §1

[20] = tested on: SW684 (Other Solid Carcinomas)
Summary of the method: as §1

Structure (SMILES): C=CCn1c(=O)c2cnc(Nc3ccc(N4CCN(C)CC4)cc3)nc2n1-c1cccc(C(C)(C)O)n1 [AZD1775] + C1CN(CCC1(C(=O)N[C@@H](CCO)C2=CC=C(C=C2)Cl)N)C3=NC=NC4=C3C=CN4 [Capivasertib] (first compound max 3 µM, partner max 3 µM)
- Bliss excess [1]: -0.0169
- Bliss excess [2]: -0.0654
- Bliss excess [3]: -0.0178
- Bliss excess [4]: 0.0034
- Bliss excess [5]: -0.111
- Bliss excess [6]: -0.0209
- Bliss excess [7]: -0.0228
- Bliss excess [8]: 0.0552
- Bliss excess [9]: -0.0033
- Bliss excess [10]: -0.018
- Bliss excess [11]: 0.0017
- Bliss excess [12]: 0.0056
- Bliss excess [13]: -0.0576
- Bliss excess [14]: -0.0746
- Bliss excess [15]: -0.0443
- Bliss excess [16]: -0.0235
- Bliss excess [17]: -0.018
- Bliss excess [18]: 0.0091
- Bliss excess [19]: 0.0244
- Bliss excess [20]: -0.0351

Structure (SMILES): C[C@@H](c1ccc2nccn2c1)n1nnc2ncc(-c3cnn(C)c3)nc21 [Savolitinib] + CC1(C)CCC(CN2CCN(c3ccc(C(=O)NS(=O)(=O)c4ccc(NCC5CCOCC5)c([N+](=O)[O-])c4)c(Oc4cnc5[nH]ccc5c4)c3)CC2)=C(c2ccc(Cl)cc2)C1 [Venetoclax] (first compound max 1 µM, 7x7, partner max 1 µM)
- Bliss excess [1]: -0.0848
- Bliss excess [2]: -0.0743
- Bliss excess [3]: -0.0156
- Bliss excess [4]: -0.0539
- Bliss excess [5]: -0.0614
- Bliss excess [6]: -0.0324
- Bliss excess [7]: -0.0752
- Bliss excess [8]: -0.0383
- Bliss excess [9]: -0.0708
- Bliss excess [10]: -0.0529
- Bliss excess [11]: -0.0111
- Bliss excess [12]: -0.0365
- Bliss excess [13]: -0.046
- Bliss excess [14]: 0.0653
- Bliss excess [15]: -0.031
- Bliss excess [16]: -0.063
- Bliss excess [17]: -0.0231
- Bliss excess [18]: -0.0452
- Bliss excess [19]: -0.0764
- Bliss excess [20]: -0.0461

Structure (SMILES): CCN(CCO)CCCOc1ccc2c(Nc3cc(CC(=O)Nc4cccc(F)c4)[nH]n3)ncnc2c1 [AZD2811] + C[C@@H]1COCCN1C2=NC(=NC(=C2)C3(CC3)[S@](=N)(=O)C)C4=C5C=CNC5=NC=C4 [AZD6738] (first compound max 1 µM, 7x7, partner max 10 µM)
- Bliss excess [1]: -0.0465
- Bliss excess [2]: -0.0164
- Bliss excess [3]: 0.0199
- Bliss excess [4]: -0.0382
- Bliss excess [5]: -0.0835
- Bliss excess [6]: -0.0445
- Bliss excess [7]: -0.0611
- Bliss excess [8]: -0.0195
- Bliss excess [9]: -0.0218
- Bliss excess [10]: -0.0574
- Bliss excess [11]: -0.0175
- Bliss excess [12]: -0.0099
- Bliss excess [13]: -0.0271
- Bliss excess [14]: 0.0425
- Bliss excess [15]: -0.0299
- Bliss excess [16]: -0.0772
- Bliss excess [17]: -0.101
- Bliss excess [18]: -0.0271
- Bliss excess [19]: -0.07
- Bliss excess [20]: -0.073

Structure (SMILES): COc1cc2c(cc1OCCCCCOc1cc3c(cc1OC)C(=O)N1C=C(C)C[C@H]1C=N3)N=C[C@@H]1CC(C)=CN1C2=O [SG3199] + O=C(c1cc(Cc2n[nH]c(=O)c3ccccc23)ccc1F)N1CCN(C(=O)C2CC2)CC1 [Olaparib] (first compound max 0.001 µM, 7x7, partner max 10 µM)
- Bliss excess [1]: -0.0223
- Bliss excess [2]: -0.0535
- Bliss excess [3]: -0.006
- Bliss excess [4]: -0.013
- Bliss excess [5]: -0.0509
- Bliss excess [6]: -0.045
- Bliss excess [7]: -0.0486
- Bliss excess [8]: -0.0067
- Bliss excess [9]: -0.0446
- Bliss excess [10]: -0.0059
- Bliss excess [11]: -0.0015
- Bliss excess [12]: 0.0119
- Bliss excess [13]: -0.0342
- Bliss excess [14]: -0.0362
- Bliss excess [15]: 0.0232
- Bliss excess [16]: -0.0422
- Bliss excess [17]: -0.0487
- Bliss excess [18]: -0.0032
- Bliss excess [19]: -0.0317
- Bliss excess [20]: -0.056

Structure (SMILES): COc1cccc(OCCCN)c1-c1cc(Nc2cnc(C#N)cn2)n[nH]1 [Prexasertib] + O=C(c1cc(Cc2n[nH]c(=O)c3ccccc23)ccc1F)N1CCN(C(=O)C2CC2)CC1 [Olaparib] (first compound max 1 µM, 7x7, partner max 10 µM)
- Bliss excess [1]: -0.0427
- Bliss excess [2]: -0.0956
- Bliss excess [3]: -0.03
- Bliss excess [4]: -0.0701
- Bliss excess [5]: -0.195
- Bliss excess [6]: -0.102
- Bliss excess [7]: -0.0721
- Bliss excess [8]: -0.0093
- Bliss excess [9]: -0.0658
- Bliss excess [10]: -0.0416
- Bliss excess [11]: -0.0307
- Bliss excess [12]: -0.0309
- Bliss excess [13]: -0.0777
- Bliss excess [14]: -0.0706
- Bliss excess [15]: -0.045
- Bliss excess [16]: -0.0191
- Bliss excess [17]: -0.0932
- Bliss excess [18]: 0.0028
- Bliss excess [19]: 0.0762
- Bliss excess [20]: -0.0742
